Laboratory results as given in patent US20220380383A1, “NEUROPROTECTIVE PDI MODULATING SMALL MOLECULES AND METHODS OF USE THEREOF” (THE TRUSTEES OF COLUMBIA UNIVERSITY IN THE CITY OF NEW YORK, priority 2018, published 2022).
Converted amounts (≈) assume the structure as drawn. Read-outs that look alike come from different tables or passages of the source.

How the values were obtained:
[1] = target: T1, human catalytic PDI A1 a domain (PDIa) (Homo sapiens, UniProt P07237); test: Isothermal titration calorimetry (ITC) binding to PDIa
T1 construct: made in house; host or cells: Escherichia coli BL21-Gold (DE3)
T1 sequence (P07237 18-134): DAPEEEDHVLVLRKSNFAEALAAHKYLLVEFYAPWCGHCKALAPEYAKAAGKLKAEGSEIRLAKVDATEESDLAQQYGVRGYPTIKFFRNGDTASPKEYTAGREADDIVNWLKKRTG
Protocol: All ITC experiments were carried out at 25° C. on MicoCal Auto-ITC200 system (GE Healthcare). […] ITC titration experiments were carried out at 25° C. with 19 injections, 2 μl per injection, and 180 seconds between each injection. The reference cell power was set to 5 μcal/sec. A control experiment was performed for each compound, where each compound was titrated into buffer to account for heat released due to dilution. This background was subtracted from test data before a final dissociation constant was obtained. […] Gibbs free energy, ΔG, was calculated from equation ΔG=ΔH-TΔS. All other parameters, Ka, n, ΔH, ΔS, were determined directly from the titration data.
LOC14 analogs were designed and synthesized as described in the synthetic schemes. The analogs were evaluated for their binding to PDIa using isothermal titration calorimetry (ITC) (results of certain compounds are shown in FIGS. 1A-1E). Next, the analogs were tested for their ability to rescue PC12 cells from mHTT^Q103 induced cell death in a dose-dependent manner (results of certain compounds are shown in FIG. 2).

PC12 mHTTQ103 cells = test: Rescue of PC12 cells from mHTTQ103-induced cell death; format: cell-based, rat; details: for EC50: Rattus norvegicus
physchem = details: organic solvent or mixture
[2] = Solubility (stock solvent)
[3] = tested on: uninduced PC12 cells not expressing mHTTQ103; test: General cell toxicity in PC12 cell culture assay; format: cell-based
Protocol: Neuroprotection was assessed by each compound's ability to rescue cells from mutant-huntingtin-induced cell death (“Ind Q103” cells; blue). General cell toxicity of each compound was assessed in uninduced cells not expressing mutant-huntingtin protein (“Unind Q103” cells; red). NMP, DMSO, LOC14 in NMP and LOC14 in DMSO were used as controls.
Data from cells induced to express mHTT^Q103 (blue) and cells not expressing mHTT^Q103 (red) are plotted as mean percent of DMSO-treated uninduced cells±SD with n=3.
The follow-up testing of primary screen hits was performed in a similar way. Fresh powder stocks of primary hits were re-ordered from vendors, dissolved in DMSO and tested in a two-fold serial dilution across 10 wells in both tebufenozide-induced and uninduced PC12 mHTT^Q103 cells. Dose-response curves were plotted as mean±SD and fit to either four-parameter sigmoidal (for uninduced cells) or bell-shaped (induced) function using Prism (GraphPad Software).

PDI = PDI (Homo sapiens, UniProt P07237); test: Enzymatic assay for inhibition of PDI using insulin as substrate; format: biochemical
Chain of PDI (P07237 18-508): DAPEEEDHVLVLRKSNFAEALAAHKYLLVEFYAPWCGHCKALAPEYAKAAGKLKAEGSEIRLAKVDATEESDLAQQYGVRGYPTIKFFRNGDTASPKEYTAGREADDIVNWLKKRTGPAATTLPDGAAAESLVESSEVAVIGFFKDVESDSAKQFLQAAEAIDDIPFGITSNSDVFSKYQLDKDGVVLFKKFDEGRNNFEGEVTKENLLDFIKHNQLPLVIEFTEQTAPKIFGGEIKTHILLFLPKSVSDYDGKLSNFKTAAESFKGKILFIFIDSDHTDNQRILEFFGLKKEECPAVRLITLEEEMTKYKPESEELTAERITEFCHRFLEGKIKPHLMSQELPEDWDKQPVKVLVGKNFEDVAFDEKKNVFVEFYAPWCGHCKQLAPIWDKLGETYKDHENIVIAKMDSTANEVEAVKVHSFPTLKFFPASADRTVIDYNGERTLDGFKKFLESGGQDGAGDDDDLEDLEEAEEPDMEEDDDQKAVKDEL

15N-labeled PDIa = target: T2, 15N-labeled PDIa (Homo sapiens, UniProt P07237); test: 1H-15N HSQC NMR of PDIa; format: binding
T2 construct: His6 (N, cleaved yes); made in house; host or cells: Escherichia coli BL21-Gold (DE3), M9 minimal medium with 15NH4Cl
T2 sequence (P07237 18-134): as the sequence (P07237 18-134) above
Protocol: The ^1H-^15N HSQC spectra were performed on Bruker Avance III 500 Ascend (500 MHz) spectrometers at 300 K. The uniformly ^15N-labeled PDIa was dissolved at 50 μM or 100 μM in 90% H2O/10% D20 (v/v), pH 5.1. The ^1H carrier frequency was positioned at the water resonance. The ^15N carrier frequency was positioned at 115 ppm. The spectral width in the ^1H dimension was 7500 Hz and the width in ω1 (^15N) dimension was 1824.6 Hz. Suppression of water signal was accomplished using the WATERGATE sequence. Heteronuclear decoupling was accomplished using GARP decoupling scheme.

[4] = PC-12, Tables 5-13, PC12 cells, read-out: EC50
[5] = PC-12, rescue from mHTTQ103 induced cell death, read-out: PC12 cells EC50
[6] = rescue from mHTTQ103 induced cell death
[7] = N/A = not active, read-out: ITC KD
[8] = Tables 5-13, NA = not active, read-out: Kd
[9] = Tables 5-13, solvent not given (DMSO in Table 1)
[10] = FIG. 1, PDI A1a titrated into compound in 0.8% NMP, read-out: Kd1

| Solubility (physchem) [mM] | Solubility [2] [mM in DMSO] | Kd [1, 7] [nM] | Kd [1, 8] [nM] | Compound | EC50 (PC12 mHTTQ103 cells; [4]) [nM] | EC50 (PC12 mHTTQ103 cells; [5]) [nM] | Max Viability (%) (PC12 mHTTQ103 cells; Tables 5-13, PC12 cells) | PC12 cells Max % Viability (PC12 mHTTQ103 cells; [6]) [%] | toxicity in PC12 cell culture assay [3] | inhibition of enzymatic (reductase) activity of PDI (PDI) | ITC KD ([1]; N/A = not active) | further results |
| --- | --- | --- | --- | --- | --- | --- | --- | --- | --- | --- | --- | --- |
| 100 (≈ 18.2 mg/mL) | 100 |  |  | O=c1c2cccnc2sn1CO [LC-73, 2-(hydroxymethyl)isothiazolo[5,4-b]pyridin-3(2H)-one] | 2480 | 2480 | 63 | 63.16 |  |  |  | Kd ([1]; FIG. 1, PDI A1a titrated into compound in DMSO, read-out: Kd): 9.8 nM; Kd ([1]; ITC assay, read-out: KD): 10 nM |
| 100 (≈ 25 mg/mL) | 100 | 162 | 162 | O=c1c2ccccc2sn1CN1CC[C@@H](O)C1 [LC-65, (R)-2-((3-hydroxypyrrolidin-1-yl)methyl)benzo[d]isothiazol-3(2H)-one] | 456 | 456 | 77 | 77.01 |  |  |  |  |
| 100 (≈ 34.7 mg/mL) | 100 | 8.2 | 8 | Cc1nnc2sn(CN3CCN(C(=O)C4CC4)CC3)c(=O)c2c1C [LC-59] | 10600 | 10600 | 59 | 59.20 |  |  |  |  |
|  |  | 700 | 700 | O=c1c2cccc(F)c2sn1CN1CCN(Cn2sc3c(F)cccc3c2=O)CC1 [LC-69, 2,2′-(piperazine-1,4-diylbis(methylene))bis(7-fluorobenzo[d]isothiazol-3(2H)-one)] | 1970 | 1970 | 46 | 45.50 |  |  |  | Kd [1, 10]: 700 nM; Solubility (physchem; NMP (N-Methyl-2-Pyrrolidine)): 5 mM (≈ 2.24 mg/mL); Solubility (physchem; NMP): 5 mM (≈ 2.24 mg/mL) |
| 50 (≈ 15.9 mg/mL) |  | 9.6 |  | O=C(C1CC1)N1CCN(Cn2sc3ncccc3c2=O)CC1 [LC-46] | 2830 | 2830 | 39 | 39.23 |  |  |  | Kd ([1]; ITC assay, read-out: KD): 10 nM; Solubility (physchem; DMSO): 50 mM (≈ 15.9 mg/mL) |

Second part, the molecule before the results:

| Compound | Solubility (physchem) [mM] | Solubility [2] [mM in DMSO] | Kd [1, 7] [nM] | Kd [1, 8] [nM] | EC50 (PC12 mHTTQ103 cells; [4]) [nM] | EC50 (PC12 mHTTQ103 cells; [5]) [nM] | Max Viability (%) (PC12 mHTTQ103 cells; Tables 5-13, PC12 cells) | PC12 cells Max % Viability (PC12 mHTTQ103 cells; [6]) [%] | toxicity in PC12 cell culture assay [3] | inhibition of enzymatic (reductase) activity of PDI (PDI) | ITC KD ([1]; N/A = not active) | further results |
| --- | --- | --- | --- | --- | --- | --- | --- | --- | --- | --- | --- | --- |
| Cc1cc(C)c2c(=O)[nH]sc2n1 [LC-50] | 100 (≈ 18 mg/mL) | 100 | 3830 | 3830 | 5180 | 5180 | 65 | 65.19 | complete loss of toxicity |  |  |  |
| Cc1ccc(-n2sc3ccccc3c2=O)c(Br)c1 [LC-36] |  |  |  |  |  |  | 15 |  |  | did not inhibit PDI's reductase activity |  | Kd ([1]; read-out: KD2): 25 nM; Solubility [2, 9]: 100 mM (≈ 32 mg/mL) |
| O=c1c2ccccc2sn1-c1ccccc1 [LC-24] |  |  |  |  |  |  | 31 | 30.83 |  | did not inhibit PDI's reductase activity |  | Kd ([1]; Tables 6, 11, 12, read-out: Kd (nM), first value of two-site binding): 8 nM; Kd ([1]; Tables 6, 11, 12, read-out: Kd (nM), second value of two-site binding): 1140 nM; Kd ([1]; read-out: KD2): 1140 nM; EC50 (PC12 mHTTQ103 cells; PC-12): 1130 nM; EC50 (PC12 mHTTQ103 cells; PC-12, read-out: PC12 cells EC50): 1130 nM |
| O=c1[nH]sc2c(F)cccc12 [LC-40, 7-fluorobenzo[d]isothiazol-3(2H)-one] |  | 100 |  |  | 9320 |  | 72 | 72.31 | decreased cellular toxicity | able to inhibit the enzymatic activity of PDI | KD = N/A irreversible or not active | binding to PDI by ITC [1]: showed no binding to the protein by ITC; Solubility [2, 9]: 100 mM (≈ 16.9 mg/mL) |
| Cc1cc(C)c2c(=O)n(CN3CCN(C(=O)C4CC4)CC3)sc2n1 [LC-53] |  |  |  |  | 4250 | 4250 | 67 | 67.25 | complete loss of toxicity | did inhibit the enzymatic activity of PDI | KD = N/A irreversible or not active | binding to PDI by ITC [1]: could not be detected by ITC; chemical shift changes in PDIa (1H-15N HSQC) (15N-labeled PDIa): induced the same chemical shifts in PDI as LOC14 |
| O=c1c2cccnc2sn1CN1CCN(Cn2sc3ncccc3c2=O)CC1 [LC-68, 2,2′-(piperazine-1,4-diylbis(methylene))bis(isothiazolo[5,4-b]pyridin-3(2H)-one)] |  |  |  |  | 2060 | 2060 | 36 | 35.78 |  |  | Not active or irreversible | ITC binding ([1]; FIG. 1, PDI A1a titrated into compound in 0.8% NMP): no binding; Solubility (physchem; NMP (N-Methyl-2-Pyrrolidine)): 5 mM (≈ 2.07 mg/mL); Solubility (physchem; NMP): 5 mM (≈ 2.07 mg/mL) |
| Cc1nc2sn(CN3CCN(C(=O)C4CC4)CC3)c(=O)c2c(C)c1C [LC-52] |  |  |  |  | 3570 |  | 68 | 68.30 | complete loss of toxicity | did inhibit the enzymatic activity of PDI | KD = N/A irreversible or not active | binding to PDI by ITC [1]: could not be detected by ITC; chemical shift changes in PDIa (1H-15N HSQC) (15N-labeled PDIa): induced the same chemical shifts in PDI as LOC14 |
| Cc1nc2s[nH]c(=O)c2c(C)c1C [LC-51] |  |  |  |  | 2200 |  | 63 | 63.14 | complete loss of toxicity | did inhibit the enzymatic activity of PDI | KD = N/A irreversible or not active | binding to PDI by ITC [1]: could not be detected by ITC; chemical shift changes in PDIa (1H-15N HSQC) (15N-labeled PDIa): induced the same chemical shifts in PDI as LOC14 |
| Cc1cc(C)c2c(=O)n(CN3CCN(Cn4sc5nc(C)cc(C)c5c4=O)CC3)sc2n1 [LC-70, 2,2′-(piperazine-1,4-diylbis(methylene))bis(4,6-dimethylisothiazolo[5,4-b]pyridin-3(2H)-one)] |  |  |  | 3800 | 3090 | 3090 | 59 | 59.18 |  |  |  | Kd [1, 10]: 3800 nM; Kd ([1]; read-out: ITC KD): 3800 nM; Solubility (physchem; NMP (N-Methyl-2-Pyrrolidine)): 5 mM (≈ 2.35 mg/mL); Solubility (physchem; NMP): 5 mM (≈ 2.35 mg/mL) |
